The subject of the data set is Aedes aegypti mosquitoes. Description: Topical bioassay on adult female Aedes aegypti mosquitoes (knockdown 1 h, mortality 24 h; Colby calculation for combinations). As to conditions: for mortality at 300 pg: read-out: % MORTALITY AFTER 24 HRS, insecticide alone, 0.0003 μg. In kind it is in vivo. The text has this:
Components of a composition can have a synergistic or additive effect on insecticidal activity. Components have an additive effect when the effect of the combination is equal to the sum of the effects of each individual component. In contrast, components have a synergistic effect when the effect of the combination exceeds the sum of the effects of the components when applied individually. The effect (E) of a combination of two compounds may be calculated using the Colby formula (1) (S. R. Colby, “Calculating Synergistic and Antagonistic Responses of Herbicide Combinations”, Weeds 1967, 15, 20-22):
If the actual insecticidal kill rate is the calculated value (E), then the action of the combination is additive. If the actual insecticidal kill rate exceeds the calculated value (E), then the action of the combination is super-additive, that is, a synergistic effect is present. If the insecticidal kill rate is lower than the calculated value (E), then the action of the combination is considered antagonistic.
Adult female Aedes aegypti mosquitoes were segregated in 18″×18″ screen cages based on date of eclosion, therefore the exact age of the mosquitoes were known for bioassays.
Ten female mosquitoes, aged four to six days after eclosion, were aspirated out of their respective cage and into a small glass jar. The mosquitoes were then anesthetized with CO2 gas for 30 seconds. After the adults were anesthetized, they were quickly placed on a plastic platform for treatment application. Treatments were serially diluted (using a BrandTech Scientific Transferpette S pipette (100-1000 μL), labeled centrifuge tubes, and a vortex mixer) from stocks of insecticides using reagent grade acetone as the diluent to concentrations as indicated for each treatment solution. A treatment solution may contain additional ingredients as indicated for each study.
Using a Hamilton PB00-1 Repeating Dispenser with a Hamilton 25 Microliter Syringe, 0.5 μL of each treatment solution was applied to the thorax of each mosquito. Immediately following the application of the treatment, the mosquitoes were gently transferred into a clean paper cup and covered with screen. The mesh screen prevented the mosquitoes from escaping and allowed the specimens to be viewed for ratings. A cotton ball soaked with 10% sucrose solution was inserted into a side hole of each cup for hydration and nourishment. Each treatment variable in the study was replicated three times using separate cups for each replication.
The untreated controls treatments were anesthetized for 30 seconds and gently transferred to the paper cups. The acetone treated control was treated exactly as described above except that the solution applied to each mosquito was undiluted acetone.
The condition of the mosquitoes in each cup was recorded at one hour and 24 hours after initial treatment. The condition classifications used were (1) alive and flying, (2) alive and unable to fly, or (3) dead. The percent mortality for each treatment was calculated by summing the mortalities of each replicate then calculating the percent dead from the total number of mosquitoes.
Where indicated, the mortality data were subjected to probit analysis using the Statistical Analysis System Version 9.1 program PROC PROBIT (SAS Institute (2003) PROC user's manual, version 9.1. SAS Institute, Cary, N.C.).

The mark [1] stands for this setting: Aedes aegypti, topical, 24 h, adult, virgin, female Aedes aegypti.
The mark [2] stands for this setting: Aedes aegypti, topical, 24 h, read-out: % MORTALITY AFTER 24 HRS, active ingredient alone, 3%, adult, virgin, female Aedes aegypti.
The mark [3] stands for this setting: active ingredient alone, 3%, adult, virgin, female Aedes aegypti.
The mark [4] stands for this setting: Aedes aegypti, topical, 24 h, read-out: % MORTALITY AFTER 24 HRS, single active, 3%.

“And” between values parts separate entries of the source, which are not always exact repeats. Equal entries are not always repeated. Where two headings read alike, the source gives them in different places.

Consider `CC1(C)C2CC=C(C=O)C1C2` [(1R)-(−)-Myrtenal], for which the “% MORTALITY AFTER 24 HRS” value (2%) is reported as 10%.
`C=C(C)[C@H]1CC=C(C)C(=O)C1` [(S)-(+)-Carvone]: the “% MORTALITY AFTER 24 HRS” value by setting is: (3%) 13%; (single active, 3%) 7% and 17%.
In the case of `C=C(C)[C@H]1CC=C(C)CC1` [Limonene], the “% MORTALITY AFTER 24 HRS” value (5%) is 27%.
On to `CC(C)=CC1C(C(=O)OCc2cccc(Oc3ccccc3)c2)C1(C)C` (stereo not drawn) [Sumithrin, sumithrin (d-phenothrin), reference compound], for which the mortality at 700 pg reads like this: (Aedes aegypti, topical, 24 h, read-out: % MORTALITY AFTER 24 HRS, 0.0007 μg) 27%; (Aedes aegypti, topical, 24 h, read-out: % MORTALITY AFTER 24 HRS, insecticide alone, 0.0007 μg, adult, virgin, female Aedes aegypti) 43%; (Aedes aegypti, topical, 24 h, read-out: % MORTALITY AFTER 24 HRS, single active, 0.0007 μg) 27%. The mortality at 300 pg under setting [1] is 27%.
In the case of `CN/C(=N\[N+](=O)[O-])NCc1cnc(Cl)s1` [Clothianidin, clothianidin, reference compound], the mortality at 5 ng (Aedes aegypti, topical, 24 h, read-out: % MORTALITY AFTER 24 HRS, 0.005 μg) was 7%. For the same compound, the mortality at 10 ng by setting is: (Aedes aegypti, topical, 24 h, read-out: % MORTALITY AFTER 24 HRS, 0.01 μg) 50%; (Aedes aegypti, topical, 24 h, read-out: % MORTALITY AFTER 24 HRS, single active, 0.01 μg) 47%. Besides, for the setting “Aedes aegypti, topical, 24 h, read-out: % MORTALITY AFTER 24 HRS, 0.025 μg”, the mortality at 25 ng was 40%. The mortality at 15 ng (Aedes aegypti, topical, 24 h, read-out: % MORTALITY AFTER 24 HRS, single active, 0.015 μg) was 0%. In addition, the mortality at 20 ng (Aedes aegypti, topical, 24 h, read-out: % MORTALITY AFTER 24 HRS, single active, 0.02 μg) is 43%.
For `CC1=CCC(=C(C)C)CC1` [Terpinolene, terpinolene], under setting [2], the mortality at 3 % is 20%.
On the same count and under the same terms, the value for `CC1=CC(=O)CC(C)(C)C1` [Isophorone, isophorone] was 57%.
Take `CC1=CC(=O)CC(C)C1` (centres unmarked) [3,5-Dimethyl . . .]: the “% MORTALITY AFTER 24 HRS” value under setting [3] was 63%.
As for `CC(C)(C)C1=CCCCC1` [1-tert-Butyl . . .], the “% MORTALITY AFTER 24 HRS” value under setting [3] is listed as 30%.
On to `CC1=CC(=O)CC(C)C1` (centres unmarked) [3.5-Dimethyl . . .], for which the “% MORTALITY AFTER 24 HRS” value under setting [3] is given as 30%.
Turning to `CC/C=C\C/C=C\C/C=C\CCCCCCCC(=O)O` [Linolenic acid], the 1 hour knockdown is listed as 0% (1%), 27% (5%), 40% (10%) and 93% (20%). Under “Aedes aegypti, topical, 24 h, read-out: % MORTALITY AFTER 24 HRS, 1%”, the mortality at 1 % was 3%. For the same compound, the mortality at 5 % (Aedes aegypti, topical, 24 h, read-out: % MORTALITY AFTER 24 HRS, 5%) is 33%. Also, the mortality at 10 % (Aedes aegypti, topical, 24 h, read-out: % MORTALITY AFTER 24 HRS, 10%) is 83%. In addition, the mortality at 20 % (Aedes aegypti, topical, 24 h, read-out: % MORTALITY AFTER 24 HRS, 20%) is 93%. The mortality at 3 % under setting [4] is 10%.
As for `CC[S+]([O-])c1c(C#N)nn(-c2c(Cl)cc(C(F)(F)F)cc2Cl)c1N` (centres unmarked) [ethiprole, reference compound], where the note is “0.0005 μg/mosquito”, the 1 hour knockdown is given as 0%. For the same compound, under “Aedes aegypti, topical, 24 h, read-out: % MORTALITY AFTER 24 HRS, 0.0005 μg/mosquito”, the mortality at 0.0005 µg/mosquito was 97%.
`C#CCC1=C(C)C(OC(=O)C2C(C=C(C)C)C2(C)C)CC1=O` (centres unmarked) [Prallethrin, prallethrin, reference compound]: the mortality at 750 pg is 37% (Aedes aegypti, topical, 24 h, read-out: % MORTALITY AFTER 24 HRS, 0.00075 μg) and 20% (Aedes aegypti, topical, 24 h, read-out: % MORTALITY AFTER 24 HRS, single active, 0.00075 μg). For the same compound, under setting [1], the mortality at 300 pg is 7%. Moreover, under “Aedes aegypti, topical, 24 h, read-out: % MORTALITY AFTER 24 HRS, insecticide alone, 0.0004 μg, adult, virgin, female Aedes aegypti”, the mortality at 400 pg was 40%.
Consider `OCC1CC=CCC1` (centres unmarked) [3-Cyclohexene-1-methanol, 3-cyclohexene-1-methanol], for which, under setting [4], the mortality at 3 % is 57%.
`C=C(C)[C@@H]1CC=C(C=O)CC1` [(S)-(−)-Perillaldehyde]: the 1 hour knockdown is reported as 3% (1%), 93% (5%), 100% (10%) and 97% (20%). Besides, the “% MORTALITY AFTER 24 HRS” value is recorded as 7% (1%); 30% (2%); 93% (5%); 100% (10%); 100% (20%).
Regarding `C=C(C)[C@@H]1CC=C(C)C(=O)C1` [(R)-(−)-Carvone], the “% MORTALITY AFTER 24 HRS” value by setting is: (3%) 7%; (single active, 3%) 13% and 10%.
Take `CC1CC=CCC1` (centres unmarked) [4-Methylcyclohexene]: the mortality at 3 % under setting [2] is 0%.

Values taken from US10349662B2, “Insecticidal compositions and methods of using the same” (priority 2011, dated 2019).
